Measurements: patent US8969395B2, “Triterpenoid derivatives useful as antiproliferative agents” (Universidade de Coimbra, priority 2009, dated 2015)

How the values were obtained:
[1] = test system: Chang liver (normal liver cell line); test: Apoptosis, Annexin V-FITC/PI FACS, Chang liver; assay type: cell-based, human; settings: at the IC80 found for HepG2, FIG. 8
Description: (§1) Briefly, the same number of HepG2, HeLa, Jurkat and Chang liver cells as in the cell cycle assay were treated with compounds 20, 44, 46 and betulinic acid 2, as described above. Cells were collected washed once in ice-sold binding buffer (10 mM HEPES/NaOH, pH 7.4, 140 mM NaCl, 2.5 mM CaCl2) and ressuspended in the same buffer (95 μl) at a maximum, of 8×10^5 cells/ml. Annexin V-FITC conjugate (1 μg/ml) was added and incubated for 30 min at room temperature in darkness. Just before FACS analysis, cells were stained with 20 μl of […]. Approximately 1×10^4 cells were analysed for each histogram and experiments were performed three times with triplicates per experiment. FACS analysis using Annexin V-FITC staining and PI accumulation was used to differentiate early apoptotic cells (Annexin V^+ and PI^−) from necrotic or late apoptotic cells (Annexin V^+ and PI^+). […] In comparison with untreated controls, compound 44 treatment of HepG2 cells generated apoptosis in 53% of cells (42% of early apoptosis and 11% of late apoptosis), compound 46 generated apoptosis in 38% of cells (28% of early apoptosis plus 10% late apoptosis) and compound 20 induced apoptosis in 29% of cells (22% of early apoptosis plus 7% late apoptosis) (FIG. 8).

[2] = test system: HepG2 cells; test: Apoptosis, Annexin V-FITC/PI FACS, HepG2; assay type: cell-based, human; settings: HepG2, at IC50, 72 h; for effectiveness at inducing apoptosis: FIG. 8; for apoptosis (% of cells, early plus late): in comparison with untreated controls
Description: as §1, with “Assessment of apoptosis was performed 72 h after treatment with derivatives at their IC50. Briefly,” for “Briefly,”

[3] = test system: HeLa cells; test: Cell cycle analysis by flow cytometry (FACS, PI), HeLa; assay type: cell-based, human; settings: compound at its IC50, 72 h
Description: The effects on the cell cycle of some of these compounds were assessed through flow cytometry by using a fluorescence-activated cell sorter (FACS) (Table 5 below). For this assay 2.3×10^5 HepG2 cells/well, 2.9×10^4 HeLa cells/well, 1.6×10^5 Jurkat cells/well and 1.4×10^5 Chang liver cells/well were plated in 6 well plates with 2 ml of medium. The number of cells was determined by the relationship number of cells/area wells, considering the number of cells that were cultured in 96-well plates. […] Chang liver cells were incubated with compounds 20, […] at concentrations corresponding to the IC80 determined for HepG2 at 72 h. Following 72 h. of incubation, cells were harvested by mild trypsinization, collected by centrifugation and stained in ice-cold Tris-buffered saline (TBS), containing 1 mg/ml PI, 10 mg/ml RNAse free of DNAase and 0.1% Igepal CA-630 for 1 h at 4° C. FACS analysis was carried out at 488 nm in an Epics XL flow cytometer (Coulter Corporation, Hialeah, Fla.). Data from 8×10^3 cells were collected and analyzed using Multicycle program (Phoenix Flow Systems, San Diego, Calif.). All experiments were performed three times with three replicates per experiment. […] To explore the selectivity of the effect on tumor cells, we also tested compounds 20, 44 and 46 in a non-malignant cell line. Chang liver cells were treated with the compounds at the IC80 values determined for HepG2 after 72 h of incubation and no effect was observed, indicating a selective effect of these agents (Table 5 below).

[4] = test system: Chang liver (human normal liver cells); test: Cytotoxic activity against non-tumoral cell line, MTT assay; assay type: cell-based; settings: 72 h, mean ±SD
Description: The cytotoxic of compounds of formulas (I) and (II) 14-50 was assessed towards human cancer (HepG2, HeLa and Jurkat) cell lines (Table 3 below). Compounds presented on Table 4 were also tested against a non-tumoral liver cell line (Chang liver). The cell viability of HeLa, HepG2 and Chang liver cells was determined by the MTT assay. Briefly, exponentially growing cells were plated in 96-well plates at a density of 1×10^3, 8×10^3 and 5×10^3 cells/well respectively and incubated for 24 h before treatment. The grown medium was replaced with one contained the tested compounds dissolved in DMSO (final DMSO concentration <0.1%) at different concentrations, in triplicate wells, and cells were incubated for 72 h. After incubation with the compounds, the medium was removed and MTT solution (0.5 mg/ml, 100 μl) was added to each well and the plates were incubated again for 1 h. DMSO (100 μl) was then added to dissolve the formazan crystals and the plates were immediately read at 550 nm on an ELISA plate reader (Tecan Sunrise MR20-301, TECAN, Austria). For the Jurkat cells, the cell viability was determined by the XTT assay. Briefly, exponentially growing cells were plated in 96-well plates at a density of 5.5×10^3 cells/well, treated with different concentrations of compounds in triplicate and incubated for 72 h. After incubation with the compounds the XTT labeling mixture (100 μl) were added to each of the wells and after a 4 h incubation period the plates were read at 450 nm on an ELISA plate reader. […] Known for its cytotoxic activity, betulinic acid 2 was used as a positive control in this experimentation. […] All the IC50 results represent an average of a minimum of three experiments and were expressed as means±standard deviation (SD).

Row | Compound | apoptosis induction in normal liver cell line [1] | early apoptosis (Annexin V+ and PI-) [2] | late apoptosis (Annexin V+ and PI+) [2] | effectiveness at inducing apoptosis [2] | apoptosis (% of cells, early plus late) [2] | Phase of cell cycle (% of cells) G0/G1 [3] | Phase of cell cycle (% of cells) G2/M [3] | Phase of cell cycle (% of cells) S [3] | IC50 [4]
1 | C=C(C)[C@@H]1CC[C@]2(CO)CC[C@]3(C)[C@H](CC[C@@H]4[C@@]5(C)CC[C@H](OC(=O)n6ccnc6)C(C)(C)[C@@H]5CC[C@]43C)[C@@H]12 [Compound 20, 28-hydroxy-lup-20(29)-en-3β-yl-1H-imidazole-1-carboxylate] | no effect | 22% | 7% | extremely effective | 29 % of cells | 50.6 ± 1.3 % of cells | 13.0 ± 1.4 % of cells | 36.4 ± 2.4 % of cells | 60.7 ± 3.8 µM
2 | C=C(C)[C@@H]1CC[C@]2(C(=O)n3ccnc3)CC[C@]3(C)[C@H](CC[C@@H]4[C@@]5(C)CCC(=O)C(C)(C)[C@@H]5CC[C@]43C)[C@@H]12 [Compound 44, 28-(1H-imidazol-1-yl)-lup-20(29)-en-3,28-dione] | no effect | 42% | 11% | most effective | 53 % of cells | 53.1 ± 1.1 % of cells | 13.8 ± 1.1 % of cells | 33.1 ± 0.9 % of cells | 48.8 ± 2.8 µM
3 | C=C(C)[C@@H]1CC[C@]2(C(=O)n3ccnc3)CC[C@]3(C)[C@H](CC[C@@H]4[C@@]5(C)C=CC(=O)C(C)(C)[C@@H]5CC[C@]43C)[C@@H]12 [Compound 46, 28-(1H-imidazol-1-yl)-lup-1,20 (29)-dien-3,28-dione] | no effect | 28% | 10% | extremely effective | 38 % of cells | 64.6 ± 2.4 % of cells | 9.7 ± 1.3 % of cells | 25.6 ± 1.5 % of cells | 55.9 ± 4.6 µM
